Patent US20250282895A1, “PHARMACEUTICAL COMPOSITIONS OF CHEMOTHERAPEUTIC AGENTS BASED ON BETA-S[…]-AMINO ACID DERIVATIVES” (priority 2021, published 2025)
Structures can show the parent of a compound that is named as a salt.

Key:
[1] = Stability (impurities) of Compound (1c):SBE6.5-β-CD formulations at different pH values; type: physicochemical; settings: listed as Compound (1c) HCl salt, mono hydrochloride salt
Description: The stability of Compound (1c) in formulations containing a Compound (1c): SBE6.5-β-CD guest-host inclusion complex at different pH was determined by analytical HPLC/UV. The mass ratio of Compound (1c) to SBE6.5-β-CD was either 1:54 or 1:50.
To prepare the formulations, SBE6.5-β-CD was dissolved in water for injection (WFI) by continuous stirring until a clear solution was obtained. The solution was acidified by addition of 1 N HCl. Compound (1c) was dissolved in the acidified aqueous SBE6.5-β-CD solution and water was added at Q.S. to the final volume to prepare a solution with a nominal concentration of 5.0 mg/mL of Compound (1c). The pH was adjusted with 1 N HCl to the values shown in Table 7 which corresponded to the pH of the final formulation after reconstitution with 0.9% saline. The solution was filtered through a 0.22 μm syringe filter followed by lyophilization to dryness affording a colorless powdery solid. The freeze-dried lyophilizate was reconstituted with 0.9% saline to the nominal target concentration of 5.0 mg/mL of Compound (1c). […]
Analytical HPLC/UV was performed on a HPLC chromatograph equipped with a UV detector, a Waters Xbridge® C18 column (4.6× 150 mm; 5 μm) operated at 30° C. and a personal computer for data computation. Gradients of 0.01 M potassium dihydrogen phosphate solution (KH2PO4) solution adjusted to pH to 3.0 with phosphoric acid (H3PO4): acetonitrile=850:150 (v/v) (solvent A) and acetonitrile (MeCN; solvent B) were used in the analytical HPLC/UV analyses. The needle wash was performed with 50% aqueous acetonitrile. Prior to injection into the HPLC/UV system (10 μL injection volume), samples were diluted to a nominal concentration of 0.5 mg/mL of Compound (1c) with a 0.9 M sodium chloride (NaCl) and 0.1 N hydrochloric acid (HCl) diluent. The diluent solution was prepared from 5.26 g (90.0 mmol) of sodium chloride and 850 μL of concentrated hydrochloric acid (HCl) (36-38 wt-%, d 1.184, 1.00 g, 10.2 mmol) diluted to 100 mL solution.
The HPLC/UV method used employed a gradient from 10 vol-% of solvent B to 100 vol-% of solvent B with a 36 min runtime at a flow rate of 1.5 mL/min and UV detection at 2=220 nm.

[2] = Comparative stability, Formulation 2 (based on Alkeran); type: physicochemical; settings: Formulation 2, 25° C.
Description: The stability of Compound (1c) either as the HCl salt or as the free base was compared to the stability of melphalan HCl and/or bendamustine HCl in various pharmaceutical formulations and at different concentrations and at temperatures of 0° C. or 25° C.
The stability of the compounds in the pharmaceutical formulations was determined at concentrations within the range from 0.4 mg/mL to 0.5 mg/mL, from 0.9 mg/mL to 1.1 mg/mL, and from 1.8 mg/mL to 2.1 mg/mL.
The amount of the active pharmaceutical ingredient (API) (Compound (1c), melphalan or bendamustine) in the pharmaceutical formulations at different times during storage was determined using HPLC/UV as described in detail for Example 4 and Example 5.
Alkeran® is an injectable formulation of melphalan-HCl approved by the FDA. Alkeran® for injection is supplied as a sterile, nonpyrogenic, freeze-dried powder. Each vial contains melphalan hydrochloride equivalent to 50 mg melphalan and 20 mg povidone (polyvinylpyrrolidinone, PVP). The solid powder is recons trued in a sterile diluent containing 0.2 g of sodium citrate, 6.0 mL of propylene glycol, and 0.52 mL of ethanol (96%) and Water for Injection for a total of 10 mL. This provides a nominal 5 mg/mL solution of melphalan (admixture). The dose to be administered is immediately diluted in 0.9% sodium chloride injection, USP, to a concentration not greater than 0.45 mg/mL. Alkeran® for injection is administered intravenously.
A stock solution was prepared by dissolving 68.8 mg (0.206 mmol) of Compound (1c) (free base) and 25.0 mg of Plasdone® C-12 (Povidone; Ashland, 830796) in about 20.0 mL of a mixture of acetonitrile/water (1:1, v/v) with vortexing in clean graduated glass cylinder (25 mL). A solution of 0.407 mL of 0.5072 M aq. HCl (0.206 mmol, 1.0 eq.; Fluka, 318957) was added with gentle vortexing, and the resulting clear solution was further diluted to 25.0 mL with a mixture of acetonitrile/water (1:1, v/v) with gentle vortexing to afford a stock solution of Compound (1c) as a mono-HCl salt of a concentration 2.75 mg/mL and a Plasdone® concentration of 1.0 mg/mL. This solution was filtered through a 0.45 μm nylon syringe filter into a clean 50 mL Erlenmeyer flask. Aliquots of 2.0 mL (2× 1.0 mL; 2× 2.75 mg) of this stock solution were rapidly pipetted into clean 12 mL scintillation vials. The aliquots were frozen at −78° C. (dry ice/acetone bath) and lyophilized at about 100 mTorr for about 16 hours to provide test vials each containing 6.1 mg (0.0165 mmol) of Compound (1c) mono-hydrochloride salt (mono-HCl salt) (corresponding to 5.5 mg of Compound (1c), free base, as a colorless powdery solid.
A stock solution was prepared by dissolving 62.5 mg (0.205 mmol) of melphalan (free base; SigmaAldrich, M2011) and 25.0 mg of Plasdone® C-12 (Povidone; Ashland, 830796) in about 20.0 mL of a mixture of acetonitrile/water (1:1, v/v) with vortexing in clean graduated glass cylinder (25 mL). A solution of 0.404 mL of 0.5072 M aq. HCl (0.205 mmol, 1.0 eq.; Fluka, 318957) was added with gentle vortexing, and the resulting clear solution was further diluted to 25.0 mL with a mixture of acetonitrile/water (1:1, v/v) with gentle vortexing to afford a stock solution of melphalan as a mono-HCl salt of a concentration 2.50 mg/mL and a Plasdone® concentration of 1.0 mg/mL. This solution was filtered through a 0.45 μm nylon syringe filter into a clean 50 mL Erlenmeyer flask. Aliquots of 2.0 mL (2× 1.0 mL; 2×2.50 mg) of this stock solution were rapidly pipetted into clean 12 mL scintillation vials. The aliquots were frozen at −78° C. (dry ice/acetone bath) and lyophilized at about 100 mTorr for about 16 hours to provide test vials each containing 5.6 mg (0.0164 mmol) of melphalan mono-hydrochloride salt (mono-HCl salt) (corresponding to 5.0 mg of melphalan as a free base) as a colorless powdery solid. […]

[3] = Compound (1c):SBE6.5-β-CD 1:54, pH 4.1, 0 h, 5.0 mg/mL in 0.9% saline
[4] = Compound (1c):SBE6.5-β-CD 1:54, pH 4.1, Cake
[5] = pH 5.5-5.8, 0.5 hours, 0.4-0.5 mg/mL
[6] = pH 5.5-5.8, 0.5 hours, 0.9-1.1 mg/mL
[7] = pH 5.5-5.8, 0.5 hours, 1.8-2.1 mg/mL
[8] = pH 5.5-5.8, 2.0 hours, 0.4-0.5 mg/mL
[9] = pH 5.5-5.8, 2.0 hours, 0.9-1.1 mg/mL
[10] = pH 5.5-5.8, 2.0 hours, 1.8-2.1 mg/mL

Cc1ccc(N(CCCl)CCCl)cc1C[C@H](N)CC(=O)O [Compound (1c)•HCl, (S)-3-amino-4-(5-(bis(2-chloroethyl)amino)-2-methylphenyl) butanoic acid mono hydrochloride salt]
Impurity (% AUC) RRT 0.36 [1, 3]: 1.51 % AUC
Impurity (% AUC) RRT 1.31 [1, 3]: 0.18 % AUC
Impurity (% AUC) Total [1, 3]: 2.2 % AUC
Impurity (% AUC) RRT 0.36 [1, 4]: 1.51 % AUC
Impurity (% AUC) RRT 1.31 [1, 4]: 0.18 % AUC
Impurity (% AUC) Total [1, 4]: 2.13 % AUC
% API [2, 5]: 91%
% API [2, 6]: 89%
% API [2, 7]: 89%
% API [2, 8]: 72%
% API [2, 9]: 60%
% API [2, 10]: 62%

Cl.N[C@@H](Cc1ccc(N(CCCl)CCCl)cc1)C(=O)O [Melphalan•HCl, 4-[bis(2-chloroethyl)amino]-L-phenylalanine hydrochloride, reference compound]
% API [2, 5]: 95%
% API [2, 6]: 91%
% API [2, 7]: 91%
% API [2, 8]: 84%
% API [2, 9]: 71%
% API [2, 10]: 75%
